Numbered stars: 1 amine (or outer) side, 2 acyl side, 3 side chain; on linkers, the order of the positions; unused ones are H or OH. Bridge positions count the residues as written; N and C are the ends. Square brackets hold non-standard residues; d marks the D form. Peptide text beside a SMILES is read from it. * marks the point of attachment. ξ: configuration not given here. X39 = COc1cccc(-c2ccc(C[C@H](N[*:1])C(=O)[*:2])cc2)c1; Phe(3-COOH) = N[C@@H](Cc1cccc(C(=O)O)c1)C(=O)O; Phe(4-COOH) = N[C@@H](Cc1ccc(C(=O)O)cc1)C(=O)O; Bip = N[C@@H](Cc1ccc(-c2ccccc2)cc1)C(=O)O; Phe(3-CN) = N#Cc1cccc(C[C@H](N)C(=O)O)c1; X37 = O=C([C@H](Cc1cn[nH]c1)N[*:1])[*:2]; Phe(3-Me) = Cc1cccc(C[C@H](N)C(=O)O)c1; Val(3-OH) = CC(C)(O)[C@H](N)C(=O)O; 4Pal = N[C@@H](Cc1ccncc1)C(=O)O; pS = N[C@@H](COP(=O)(O)O)C(=O)O; Cha = N[C@@H](CC1CCCCC1)C(=O)O; Ile(3ξ) = CCC(C)[C@H](N)C(=O)O; dCha = N[C@H](CC1CCCCC1)C(=O)O; Thr(3ξ) = CC(O)[C@H](N)C(=O)O; Carboxymethyl = O=C(O)C*; NMeA = CN[C@@H](C)C(=O)O; Dab = NCC[C@H](N)C(=O)O; Dap = NC[C@H](N)C(=O)O; Piv = CC(C)(C)C(=O)*

In this test the target is T1, PE-labeled human PD-L1-Ig binding to Jurkat cell line over-expressing human PD-1 (Jurkat-PD-1) (Homo sapiens, UniProt Q15116).
T1 construct: expressed in transfected cells; host or cells: Jurkat
In words: Jurkat-PD-1 Cell Binding High-Content Screening Assay (CBA): Method 1. The settings on record: Jurkat-hPD-1 cells, PE-labeled PD-L1-Ig 20 nM final; read-out: Jurkat HPDL1 PD1 IC50 (uM) (Method 1).

T1 sequence (Q15116 25-288): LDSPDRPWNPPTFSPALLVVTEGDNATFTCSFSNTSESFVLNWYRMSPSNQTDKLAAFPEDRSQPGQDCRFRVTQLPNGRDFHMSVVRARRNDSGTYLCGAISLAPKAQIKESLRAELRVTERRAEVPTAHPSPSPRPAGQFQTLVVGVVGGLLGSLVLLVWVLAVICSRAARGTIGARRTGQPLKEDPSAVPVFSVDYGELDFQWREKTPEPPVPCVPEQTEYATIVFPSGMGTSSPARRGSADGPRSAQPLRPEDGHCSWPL

With `CC(C)C[C@@H]1NC(=O)[C@H](Cc2c[nH]c3ccccc23)NC(=O)[C@H](CC(=O)O)NC(=O)[C@H](Cc2ccc(O)cc2)NC(=O)[C@H](Cc2ccccc2)NC(=O)CSC[C@@H](C(=O)N[C@@H](C)C(N)=O)NC(=O)[C@H](CO)NC(=O)[C@H](C(C)C)NC(=O)[C@H](CC(C)C)NC(=O)[C@H](CC(N)=O)NC(=O)[C@@H](CCCNC(=N)N)NC(=O)[C@H](C)N(C)C(=O)[C@H](C(C)C)NC(=O)[C@H](Cc2ccc(-c3ccccc3)cc2)NC1=O` [Compound 1804] ({CH2CO}-FYDWL[Bip]V[NMeA][dR]NLVSCA-NH2; thioether N-14), the half-maximal inhibitory concentration (IC50) is 0.21 µM.
With `Cc1cccc(C[C@@H]2NC(=O)[C@H](CC(=O)O)NC(=O)[C@H](Cc3ccc(OCC(=O)O)cc3)NC(=O)[C@H](C(C)O)NC(=O)CSC[C@@H](C(=O)N[C@@H](CCNC(=O)C(C)(C)C)C(N)=O)NC(=O)[C@H](Cc3cnc[nH]3)NC(=O)[C@H](C(C)(C)O)NC(=O)[C@H](CC3CCCCC3)NC(=O)[C@H](CCN)NC(=O)[C@@H](CC(C)C)NC(=O)[C@H](C)N(C)C(=O)[C@H](Cc3ccc(OCC(=O)O)cc3)NC(=O)[C@H](Cc3ccc(-c4ccccc4)cc3)NC(=O)[C@H](Cc3ccc(C(=O)O)cc3)NC2=O)c1` (stereo partly drawn) [Compound 2164] ({CH2CO}-[Thr(3ξ)]Y(Carboxymethyl)D[Phe(3-Me)][Phe(4-COOH)][Bip]Y(Carboxymethyl)[NMeA][dL][Dab][Cha][Val(3-OH)]HC[Dab](Piv)-NH2; thioether N-14) the figure was 0.05 µM.
For the compound `CC(C)C[C@@H]1NC(=O)[C@H](CCN)NC(=O)[C@@H](CC(C)C)NC(=O)[C@H](C)N(C)C(=O)[C@H](Cc2cnc[nH]2)NC(=O)[C@H](Cc2ccc(-c3ccccc3)cc2)NC(=O)[C@H](C(C)C)NC(=O)[C@H](Cc2c[nH]c3ccccc23)NC(=O)[C@H](CC(=O)O)NC(=O)[C@H](Cc2cccc(C#N)c2)NC(=O)[C@H](CC(N)=O)NC(=O)CSC[C@@H](C(=O)N[C@@H](C)C(N)=O)NC(=O)[C@H]([C@@H](C)O)NC(=O)[C@H](C(C)C)NC1=O` [Compound 1375] ({CH2CO}-N[Phe(3-CN)]DWV[Bip]H[NMeA][dL][Dab]LVTCA-NH2; thioether N-14), the IC50 is 0.05 µM.
With `CCC(C)[C@@H]1NC(=O)[C@H](Cc2ccc(-c3ccccc3)cc2)NC(=O)[C@H](CC2CCCCC2)NC(=O)[C@H](Cc2c[nH]c3ccccc23)NC(=O)[C@H](CC(=O)O)NC(=O)[C@H](Cc2ccc(OCC(=O)O)cc2)NC(=O)[C@H](C(C)O)NC(=O)CSC[C@@H](C(=O)N[C@@H](CC(N)=O)C(=O)O)NC(=O)[C@H](CO)NC(=O)[C@H](C(C)C)NC(=O)[C@H](CC(C)C)NC(=O)[C@H](CCN)NC(=O)[C@@H](CC(C)C)NC(=O)[C@H](C)N(C)C1=O` (stereo partly drawn) [Compound 2223] ({CH2CO}-[Thr(3ξ)]Y(Carboxymethyl)DW[Cha][Bip][Ile(3ξ)][NMeA][dL][Dab]LVSCN-OH; thioether N-14) the figure was 0.04 µM; with `CC(C)C[C@@H]1NC(=O)[C@H](Cc2c[nH]c3ccccc23)NC(=O)[C@H](CC(=O)O)NC(=O)[C@H](Cc2cccc(C(=O)O)c2)NC(=O)[C@H](CN)NC(=O)CSC[C@@H](C(=O)NCC(N)=O)NC(=O)[C@H](CO)NC(=O)[C@H](C(C)C)NC(=O)[C@H](CC2CCCCC2)NC(=O)[C@H](CCN)NC(=O)[C@@H](CC(C)C)NC(=O)[C@H](C)N(C)C(=O)[C@H](C(C)C)NC(=O)[C@H](Cc2ccc(-c3ccccc3)cc2)NC1=O` [Compound 1877] ({CH2CO}-[Dap][Phe(3-COOH)]DWL[Bip]V[NMeA][dL][Dab][Cha]VSCG-NH2; thioether N-14), 0.01 µM.
As for `Cc1cccc(C[C@@H]2NC(=O)[C@H](CC(=O)O)NC(=O)[C@H](Cc3ccc(C(=O)O)cc3)NC(=O)[C@H](Cc3ccc(OCC(=O)O)cc3)NC(=O)CSC[C@@H](C(N)=O)NC(=O)[C@H]([C@@H](C)O)NC(=O)[C@H](C(C)C)NC(=O)[C@H](CC(C)C)NC(=O)[C@H](CC(N)=O)NC(=O)[C@@H](CC(C)C)NC(=O)[C@H](C)N(C)C(=O)[C@H](C(C)C)NC(=O)[C@H](Cc3ccc(-c4ccccc4)cc3)NC(=O)[C@H](CC(C)C)NC2=O)c1` [Compound 1682] ({CH2CO}-Y(Carboxymethyl)[Phe(4-COOH)]D[Phe(3-Me)]L[Bip]V[NMeA][dL]NLVTC-NH2; thioether N-14), the IC50 was 0.09 µM.
Take `CC(C)C[C@@H]1NC(=O)[C@H](Cc2c[nH]c3ccccc23)NC(=O)[C@H](CC(=O)O)NC(=O)[C@H](Cc2ccc(O)cc2)NC(=O)[C@H](Cc2ccccc2)NC(=O)CSC[C@@H](C(=O)NCC(N)=O)NC(=O)[C@H](CO)NC(=O)[C@H](C(C)C)NC(=O)[C@H](CC(C)C)NC(=O)[C@H](CC(N)=O)NC(=O)[C@@H](CCC(N)=O)NC(=O)[C@H](C)N(C)C(=O)[C@H](C(C)C)NC(=O)[C@H](Cc2ccc(-c3ccccc3)cc2)NC1=O` [Compound 1784] ({CH2CO}-FYDWL[Bip]V[NMeA][dQ]NLVSCG-NH2; thioether N-14): the half-inhibitory concentration (IC50) worked out at 0.09 µM.
The result for `Cc1cccc(C[C@@H]2NC(=O)[C@H](CC(=O)O)NC(=O)[C@H](Cc3ccc(OCC(=O)O)cc3)NC(=O)[C@H](Cc3ccncc3)NC(=O)CSC[C@@H](C(=O)N[C@@H](CCN)C(N)=O)NC(=O)[C@H](CCC(=O)O)NC(=O)[C@H](C(C)C)NC(=O)[C@H](CC3CCCCC3)NC(=O)[C@H](CCN)NC(=O)[C@@H](CC(C)C)NC(=O)[C@H](C)N(C)C(=O)[C@H](Cc3ccc(OCC(=O)O)cc3)NC(=O)[C@H](Cc3ccc(-c4ccccc4)cc3)NC(=O)[C@H](Cc3ccc(C(=O)O)cc3)NC2=O)c1` [Compound 2193] ({CH2CO}-[4Pal]Y(Carboxymethyl)D[Phe(3-Me)][Phe(4-COOH)][Bip]Y(Carboxymethyl)[NMeA][dL][Dab][Cha]VEC[Dab]-NH2; thioether N-14) reads 0.01 µM.
With `CC(C)C[C@@H]1NC(=O)[C@H](CCN)NC(=O)[C@@H](CC(C)C)NC(=O)[C@H](C)N(C)C(=O)[C@H](CCCNC(=N)N)NC(=O)[C@H](Cc2ccc(-c3ccccc3)cc2)NC(=O)[C@H](C(C)C)NC(=O)[C@H](Cc2c[nH]c3ccccc23)NC(=O)[C@H](CC(=O)O)NC(=O)[C@H](Cc2ccc(O)cc2)NC(=O)[C@H](CC(N)=O)NC(=O)CSC[C@@H](C(=O)N[C@@H](CCC(=O)O)C(N)=O)NC(=O)[C@H]([C@@H](C)O)NC(=O)[C@H](C(C)C)NC1=O` [Compound 1172] ({CH2CO}-NYDWV[Bip]R[NMeA][dL][Dab]LVTCE-NH2; thioether N-14) the figure was 0.29 µM; with `CC(C)C[C@@H]1NC(=O)[C@H](Cc2c[nH]c3ccccc23)NC(=O)[C@H](CC(=O)O)NC(=O)[C@H](Cc2ccc(O)cc2)NC(=O)[C@H](Cc2ccccc2)NC(=O)CSC[C@@H](C(=O)NCC(N)=O)NC(=O)[C@H](CO)NC(=O)[C@H](C(C)C)NC(=O)[C@H](CC(C)C)NC(=O)[C@H](CC(N)=O)NC(=O)[C@@H](CO)NC(=O)[C@H](C)N(C)C(=O)[C@H](C(C)C)NC(=O)[C@H](Cc2ccc(-c3ccccc3)cc2)NC1=O` [Compound 1819] ({CH2CO}-FYDWL[Bip]V[NMeA][dS]NLVSCG-NH2; thioether N-14), 0.43 µM.
As to `CC(C)C[C@@H]1NC(=O)[C@H](CCN)NC(=O)[C@@H](CC(C)C)NC(=O)[C@H](C)N(C)C(=O)[C@H](C(C)C)NC(=O)[C@H](Cc2ccc(-c3ccccc3)cc2)NC(=O)[C@H](C(C)C)NC(=O)[C@H](Cc2c[nH]c3ccccc23)NC(=O)[C@H](CC(=O)O)NC(=O)[C@H](Cc2ccc(C(=O)O)cc2)NC(=O)[C@H](CC(N)=O)NC(=O)CSC[C@@H](C(=O)N[C@@H](C)C(N)=O)NC(=O)[C@H]([C@@H](C)O)NC(=O)[C@H](C(C)C)NC1=O` [Compound 1378] ({CH2CO}-N[Phe(4-COOH)]DWV[Bip]V[NMeA][dL][Dab]LVTCA-NH2; thioether N-14), the IC50 stood at 0.01 µM.
The result for `CC(C)C[C@@H]1NC(=O)[C@H](CCCNC(=N)N)NC(=O)[C@@H](CC2CCCCC2)NC(=O)[C@H](C)N(C)C(=O)[C@H](CCCNC(=N)N)NC(=O)[C@H](Cc2ccc(-c3ccccc3)cc2)NC(=O)[C@H](C(C)C)NC(=O)[C@H](Cc2c[nH]c3ccccc23)NC(=O)[C@H](CC(=O)O)NC(=O)[C@H](Cc2ccc(O)cc2)NC(=O)[C@H](Cc2ccccc2)NC(=O)CSC[C@@H](C(=O)N[C@@H](C)C(N)=O)NC(=O)[C@H]([C@@H](C)O)NC(=O)[C@H](C(C)C)NC1=O` [Compound 1076] ({CH2CO}-FYDWV[Bip]R[NMeA][dCha]RLVTCA-NH2; thioether N-14) reads 0.05 µM; that for `CC(C)C[C@@H]1NC(=O)[C@H](CCN)NC(=O)[C@@H](CC(C)C)NC(=O)[C@H](C)N(C)C(=O)[C@H](CCCNC(=N)N)NC(=O)[C@H](Cc2ccc(-c3ccccc3)cc2)NC(=O)[C@H](C(C)C)NC(=O)[C@H](Cc2c[nH]c3ccccc23)NC(=O)[C@H](CC(=O)O)NC(=O)[C@H](Cc2ccc(O)cc2)NC(=O)[C@H](Cc2cn[nH]c2)NC(=O)CSC[C@@H](C(=O)N[C@@H](C)C(N)=O)NC(=O)[C@H]([C@@H](C)O)NC(=O)[C@H](C(C)C)NC1=O` [Compound 1159] ({CH2CO}-[X37]YDWV[Bip]R[NMeA][dL][Dab]LVTCA-NH2; thioether N-14), 0.07 µM; that for `COc1cccc(-c2ccc(C[C@@H]3NC(=O)[C@H](C(C)C)NC(=O)[C@H](Cc4c[nH]c5ccccc45)NC(=O)[C@H](CC(=O)O)NC(=O)[C@H](Cc4ccc(O)cc4)NC(=O)[C@H](CC(N)=O)NC(=O)CSC[C@@H](C(=O)N[C@@H](C)C(N)=O)NC(=O)[C@H]([C@@H](C)O)NC(=O)[C@H](C(C)C)NC(=O)[C@H](CC(C)C)NC(=O)[C@H](CCN)NC(=O)[C@@H](CC(C)C)NC(=O)[C@H](C)N(C)C(=O)[C@H](CCCNC(=N)N)NC3=O)cc2)c1` [Compound 1211] ({CH2CO}-NYDWV[X39]R[NMeA][dL][Dab]LVTCA-NH2; thioether N-14), 0.37 µM.
As for `CC(C)C[C@@H]1NC(=O)[C@H](Cc2c[nH]c3ccccc23)NC(=O)[C@H](COP(=O)(O)O)NC(=O)[C@H](Cc2ccc(O)cc2)NC(=O)[C@H](Cc2ccccc2)NC(=O)CSC[C@@H](C(=O)N[C@@H](C)C(N)=O)NC(=O)[C@H](CO)NC(=O)[C@H](C(C)C)NC(=O)[C@H](CC(C)C)NC(=O)[C@H](CC(N)=O)NC(=O)[C@@H](C)NC(=O)[C@H](C)N(C)C(=O)[C@H](C(C)C)NC(=O)[C@H](Cc2ccc(-c3ccccc3)cc2)NC1=O` [Compound 1821] ({CH2CO}-FY[pS]WL[Bip]V[NMeA][dA]NLVSCA-NH2; thioether N-14), the IC50 is 0.49 µM.

What is called IC50 is the midpoint of a concentration-inhibition curve.

The record behind these values is patent US20240409585A1, “MACROCYCLIC IMMUNOMODULATORS” (priority 2021, published 2024).
